Laboratory results taken from paper PMC8877593, “Increased Activities against Biofilms of the Pathogenic Yeast Candida albicans of Optimized Pom-1 Derivatives” (Pharmaceutics, 2022).
Ends that are not written are not given here.

What was measured:
Assay type in all cases: cell-based, Candida albicans (ATCC 90028)
[1] = test system: planktonic C. albicans cells; assay: Resazurin reduction / viability assay on planktonic C. albicans cells (broth microdilution, CLSI M27-A3); details: for Antimycrobial Activity against Planktonic C. albicans Cells [%] at 20 µg/mL: in comparison to Pom-1 (= 100%), 20 µg/mL peptide; for inhibition of cell viability: planktonic C. albicans, 2.5 × 10^3 cells per well, 20 µg/mL, 24 h, 37 °C, RPMI-1640, resazurin fluorescence, vs untreated cells, triplicate
Method: The viability of treated C. albicans cells with Pom-1A to F was determined according to the Clinical and Laboratory Standards Institute guidelines (M27-A3) for the broth microdilution assay. For this, 2.5 × 10^3 yeast cells were incubated in 200 µL of RPMI-1640 medium (supplemented with L-glutamine) in the presence of various concentrations of Pom-1A to F (2.5–20 µg/mL) in flat-bottomed polystyrene microtiter plates with 96 wells (Sarstedt AG and Co. KG, Nümbrecht, Germany) at 37 °C with shaking at 900 rpm on an Eppendorf shaker. Quantitation of viable yeast cells was performed using a Resazurin-reduction-Assay. For this, yeast cells were incubated with 20 µL of 0.15 mg/mL resazurin solution for 2 h. During this time, the viable cells were able to reduce the resazurin to resorufin. […] For this purpose, a dilution series was prepared for each sample in RPMI 1640 medium and 1 µL was added to Sabouraud agar plates, which were then incubated for 24 h at 37 °C, respectively. To determine the antifungal effect of the peptide derivatives on planktonic C. albicans cells, different concentrations (2.5–20 µg/mL) of the peptides were applied to fixed cell numbers (2.5 × 10^3 cells per well) and were incubated for 24 h in a suspension microtiter plate.

[2] = test system: C. albicans planktonic cells; assay: Plate spot assay (colony formation after treatment of planktonic cells); details: after 24 h incubation with peptide (2.5–20 µg/mL), dilutions spotted on Sabouraud agar, further 24 h at 37 °C
Method: The viability of treated C. albicans cells with Pom-1A to F was determined according to the Clinical and Laboratory Standards Institute guidelines (M27-A3) for the broth microdilution assay. For this, 2.5 × 10^3 yeast cells were incubated in 200 µL of RPMI-1640 medium (supplemented with L-glutamine) in the presence of various concentrations of Pom-1A to F (2.5–20 µg/mL) in flat-bottomed polystyrene microtiter plates with 96 wells (Sarstedt AG and Co. KG, Nümbrecht, Germany) at 37 °C with shaking at 900 rpm on an Eppendorf shaker. Quantitation of viable yeast cells was performed using a Resazurin-reduction-Assay. For this, yeast cells were incubated with 20 µL of 0.15 mg/mL resazurin solution for 2 h. During this time, the viable cells were able to reduce the resazurin to resorufin. […] The data obtained were subsequently identified in a Hill nonlinear dose-response equation and the semi-inhibitory concentration (IC50) could be determined, at which the cell viability was reduced by 50% compared to the untreated control. In addition, after incubation, 1 µL cell suspension was taken from each well of the microtiter plate to visually confirm the graphical results in a plate spot assay. For this purpose, a dilution series was prepared for each sample in RPMI 1640 medium and 1 µL was added to Sabouraud agar plates, which were then incubated for 24 h at 37 °C, respectively.
For this purpose, 1 µL cell suspension was taken from each well before adding the resazurin solution from the suspension microtiter plate. This sample was then diluted and was added to a Sabourand agar plate, which was then incubated for an additional 24 h for colony formation.

C. albicans biofilm [3] = test system: C. albicans biofilm; parameters: semi inhibitory concentration (IC50) of biofilm formation / IC50 Values against Biofilm Formation: unit not given here; details: for semi inhibitory concentration (IC50) of biofilm formation / IC50 Values against Biofilm Formation: C. albicans, crystal violet, 24 h, 37 °C, 2.5–20 µg/mL, Hill fit, triplicate; for semi inhibitory concentration (IC50) of biofilm formation: Figure 4A; for IC50 Values against Biofilm Formation: without agitation, Table 1 (rounded); for Antimicrobial Activity against C. albicans Biofilm [%] Based on IC50 Values: in comparison to Pom-1 (= 100%), from IC50 values
Method: The analysis of the antifungal effect of the peptides on biofilm followed the same conditions as described previously. In brief, 2.5 × 10^3 yeast cells were incubated in 200 µL RPMI-1640 medium with L-glutamine in flat-bottomed polystyrene microtiter plates with 96 wells (Sarstedt AG and Co. KG, Nümbrecht, Germany) with the respective peptides at different concentrations (2.5–20 µg/mL) for 24 h at 37 °C, but without agitation. The quantification of the biofilm took place due to a crystal violet assay, which was originally developed by George O’ Toole for bacteria and was adapted for Candida biofilms. For this, the planktonic phase in the wells was removed and the biofilms were washed twice with 200 µL of demineralized water. Subsequently, the cells in the biofilm were stained for 15 min with 200 µL of a 0.1% (w/v) crystal violet solution. The solution was then removed again and the stained cells were washed twice with 200 µL of demineralized water. Then, the biofilms in the microtiter plate were dried for 24 h at 25 °C. These were then mixed with 200 µL of 30% acetic acid. After 15 min, the stained solution was transferred to a new microtiter plate and the absorbance at 560 nm was measured using a Tecan infinite F200 microplate reader. The data obtained were then graphically identified using a Hill non-linear dose-response equation and the semi-inhibitory concentration (IC50) was determined, at which 50% of the biofilm was not formed compared to the untreated control.
In order to evaluate the potential of the novel Pom-1A-F peptides, the well established crystal violet assay for microbial cultures in microtiter plates was performed to quantify the biomass formed.

C. albicans biofilm [4] = assay: Microscopic analysis of treated C. albicans biofilms; details: 20 µg/mL, 24 h at 37 °C, transmitted light, compared with untreated and Pom-1 control biofilms
Method: C. albicans biofilms were treated with Pom-1, and its derivatives in comparison to an untreated bifilm control (Figure 4B).
Figure 4 Antifungal activity of Pom-1A to F towards C. albicans biofilms. (A) Determined dose-dependent effect of Pom-1 derivatives on biofilm mass by crystal violet assay with fluconazole and Pom-1 as the control agent. All experiments were performed in triplicate and error bars indicate standard deviations. (B) Microscopic analysis using a Leica DMi8 coded (Leica Microsystems CMS GmbH, Wetzlar, Germany) microscope) of untreated C. albicans biofilm and biofilm treated with Pom-1 and its derivatives (20 µg/mL) after 24 h of incubation at 37 °C under transmitted light. TEXT PRINTED IN THE PICTURE: (A) Pom-1A: IC50: 0.9555 | (A) Pom-1B: IC50: 0.008353 | (A) Pom-1C: IC50: 0.08687 | (A) Pom-1D: IC50: 4.930e-032 | (A) Pom-1E: IC50: 2.893 | (A) Pom-1F: IC50: 0.1570 DOUBTS OF THE COPYIST ABOUT THIS PICTURE: Pom-1A, IC50: small print, 0.9555 could be 0.9535 or 0.9556 / Pom-1B, IC50: small print, 0.008353 digits 8/3/5 not certain / Pom-1C, IC50: small print, 0.08687 digits 8/6 not certain / Pom-1D, IC50: small print, 4.930e-032 digits 9/3 not certain / Pom-1E, IC50: small print, 2.893 digits 8/9/3 not certain / Pom-1F, IC50: small print, 0.1570 digit 5 not certain

Row | Molecule | Antimycrobial Activity against Planktonic C. albicans Cells [%] at 20 µg/mL [1] | inhibition of cell viability [1] | colony formation in plate spot assay [2] | semi inhibitory concentration (IC50) of biofilm formation (C. albicans biofilm [3]) | IC50 Values against Biofilm Formation (C. albicans biofilm [3]) | Antimicrobial Activity against C. albicans Biofilm [%] Based on IC50 Values (C. albicans biofilm [3]) | biofilm cell density / surface coverage by microscopy (C. albicans biofilm [4])
1 | KCAGSIAWAIGSGLFGGAKLIKIKKY [Pom-1B] | 160% | up to 70% | colony formation decreased with the increase of peptide concentrations | 0.008353 | 0.008 | 47500% | 
2 | H-KCAGSIAWAIGSGLFGGAKLIKIKKYIAELGGLQ-OH [Pom-1] | 100% |  |  |  | 3.8 | 100% | significant reduction
3 | IGSGLFGGAKLIKIKKYIA [Pom-1D] | 97% |  | colony formation decreased with the increase of peptide concentrations |  |  |  | 
4 | AIGSGLFGGAKLIKIKKYI [Pom-1F] | 82% |  |  | 0.1570 | 0.16 | 2375% | slightly higher surface coverage
5 | KCAGSIAWAIGSGLFGGAKLIKIKK [Pom-1E] | 153% |  |  | 2.893 | 2.89 | 131% | slightly higher surface coverage
6 | AGSIAWAIGSGLFGGAKLIKIKKY [Pom-1C] | 100% |  |  | 0.08687 | 0.08 | 4750% | 
7 | IGSGLFGGAKLIKIKKYI [Pom-1A] | 133% |  | colony formation decreased with the increase of peptide concentrations | 0.9555 | 0.95 | 400% | 
8 | OC(Cn1cncn1)(Cn1cncn1)c1ccc(F)cc1F [fluconazole, reference compound] |  | up to 70% |  |  |  |  | 
